{"source": "patent US20090105124A1", "about": "“HETEROCYCLIC MODULATORS OF TGR5” (Kalypsys, Inc., priority 2007, published 2009)", "target": "T1, human TGR5 (Homo sapiens, UniProt Q8TDU6)", "T1 construct": "expressed in transfected cells", "T1 sequence (Q8TDU6 1-330)": "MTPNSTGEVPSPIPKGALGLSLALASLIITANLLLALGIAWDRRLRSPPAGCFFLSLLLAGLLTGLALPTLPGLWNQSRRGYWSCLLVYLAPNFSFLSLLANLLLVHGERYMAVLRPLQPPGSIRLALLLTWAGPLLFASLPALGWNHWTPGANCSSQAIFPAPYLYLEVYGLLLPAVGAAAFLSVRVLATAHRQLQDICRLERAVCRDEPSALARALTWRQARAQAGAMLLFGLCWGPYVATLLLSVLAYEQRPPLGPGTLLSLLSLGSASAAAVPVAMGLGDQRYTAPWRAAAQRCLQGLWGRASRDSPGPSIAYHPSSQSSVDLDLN", "assay": "cAMP production assay in HEK293 cells stably expressing TGR5 (LANCE cAMP, TR-FRET)", "format": "cell-based", "conditions": "stimulated with test compounds for 30 minutes, 1 mM IBMX, read-out: cAMP Production in 293-TGR5 Cells", "experimental": "HEK293 cells stably expressing TGR5 (HEK293-TGR5) were established by stably transfecting HEK-293 cells with an expression vector (pcDNA 3.1, Invetrogen) inserted with human TGR5 cDNA using Fugene6 (Roche, Indianapolis, Ind.) according to conventional methods. Cells were grown in DMEM (invitrogen, Carlsbad, Calif.) supplemented with 10% FBS, 1% penicillin/streptomycin under geneticin selection. The presence of TGR5 transcripts in these cells was confirmed using branched DNA (bDNA, Genospectra, Inc., Fremont Calif.) following the manufacturer's protocol and using specific probes for human TGR5. cAMP production assay was performed in high throughput 1536 well format using LANCE cAMP detection kit (Perkin Elmer Inc., Boston, Mass.) according to the manufacturer's protocol. Briefly, HEK293-TGR5 cells were harvested using non-enzymatic cell dissociation buffer (Invitrogen, Carlsbad, Calif.) and suspended in DMEM supplemented with 0.1% FBS at a density of 800,000 cells/ml. Alexa antibody was added to the cell suspension, and 4 ul of the mixture was dispensed in white opaque tissue culture treated Greiner 1536 well plates (USA Scientific, Inc., Ocala, Fla.). After an overnight incubation at 37 C in an atmosphere of 10% CO2 and 95% humidity, 1 ul of 5 mM IBMX (Sigma, St. Louis, Mo.) solution in DMEM was dispensed for a final concentration of 1 mM. Cells were then stimulated with test compounds for 30 minutes, after which time 5 ul of detection reagent was added and incubated for 1-7 hrs at room temperature. TR-FRET signal was detected using the Viewlux (Perkin Elmer Inc., Boston Mass.). EC50 values were determined using Graph Pad Prizm analysis (GraphPad Software, Inc). The EC50 values for a wide range of bile acids generated from this assay were in agreement with the values published in the scientific literature. […] The symbol (+) denotes an EC50 value of ≦10 μM while the symbol (−) denotes an EC50 value of >10 μM (see Table 1)."}
{"molecule": "Cn1cnc2nc(-c3ccc(F)cc3)n(NCc3ccc(Br)cc3)c(=O)c21", "note": "[Example 38, 1-{[(4-Bromophenyl)methyl]amino}-2-(4-fluorophenyl)-7-methyl-6,7-dihydro-1H-purin-6-one]", "values": [{"measurement": "EC50", "result": "≤ 10", "unit": "µM"}]}
{"molecule": "O=c1c2ccsc2nc(-c2ccc(F)cc2)n1NCc1ccc(Cl)c(Cl)c1", "note": "[Example 33, 3-{[(3,4-Dichlorophenyl)methyl]amino}-2-(4-fluorophenyl)-3H,4H-thieno[2,3-d]pyrimidin-4-one]", "values": [{"measurement": "EC50", "result": "≤ 10", "unit": "µM"}]}
{"molecule": "COc1cccc(-c2nc3ncccc3c(=O)n2NCc2ccc(Cl)cc2)c1", "note": "[Example 3, 3-{[(4-Chlorophenyl)methyl]amino}-2-(3-methoxyphenyl)-3H,4H-pyrido[2,3-d]pyrimidin-4-one]", "values": [{"measurement": "EC50", "result": "≤ 10", "unit": "µM"}]}
{"molecule": "N#Cc1ccc(CNn2c(-c3ccc(F)cc3)nc3nccnc3c2=O)cc1", "note": "[Example 44, 4-({[2-(4-Fluorophenyl)-4-oxo-3,4-dihydropteridin-3-yl]amino}methyl)benzonitrile]", "values": [{"measurement": "EC50", "result": "≤ 10", "unit": "µM"}]}
{"molecule": "O=c1c2cccnc2nc(-c2ccc(F)cc2)n1NCc1ccc(F)c(F)c1", "note": "[Example 12, 3-{[(3,4-Difluorophenyl)methyl]amino}-2-(4-fluorophenyl)-3H,4H-pyrido[2,3-d]pyrimidin-4-one]", "values": [{"measurement": "EC50", "result": "≤ 10", "unit": "µM"}]}
{"molecule": "O=c1c2ccsc2nc(-c2ccc(O)cc2)n1NCc1ccc(Br)cc1", "note": "[Example 26, 3-{[(4-Bromophenyl)methyl]amino}-2-(4-hydroxyphenyl)-3H,4H-thieno[2,3-d]pyrimidin-4-one]", "values": [{"measurement": "EC50", "result": "≤ 10", "unit": "µM"}]}
{"molecule": "O=c1c2cccnc2nc(-c2cncc(Cl)c2)n1NCc1ccc(Cl)cc1", "note": "[Example 8, 3-{[(4-Chlorophenyl)methyl]amino}-2-(5-chloropyridin-3-yl)-3H,4H-pyrido[2,3-d]pyrimidin-4-one]", "values": [{"measurement": "EC50", "result": "≤ 10", "unit": "µM"}]}
{"molecule": "Cn1ncc2nc(-c3ccc(F)cc3)n(NCc3ccc(F)c(F)c3)c(=O)c21", "note": "[Example 42, 6-{[(3,4-Difluorophenyl)methyl]amino}-5-(4-fluorophenyl)-1-methyl-1H,6H,7H-pyrazolo[4,3-d]pyrimidin-7-one]", "values": [{"measurement": "EC50", "result": "> 10", "unit": "µM"}]}
{"molecule": "O=c1c2nccnc2nc(-c2ccc(F)cc2)n1NCc1ccc(Cl)cc1F", "note": "[Example 46, 3-{[(4-Chloro-2-fluorophenyl)methyl]amino}-2-(4-fluorophenyl)-3,4-dihydropteridin-4-one]", "values": [{"measurement": "EC50", "result": "≤ 10", "unit": "µM"}]}
{"molecule": "O=c1c2nccnc2nc(-c2cncc(Cl)c2)n1NCc1ccc(Cl)cc1", "note": "[Example 49, 3-{[(4-Chlorophenyl)methyl]amino}-2-(5-chloropyridin-3-yl)-3,4-dihydropteridin-4-one]", "values": [{"measurement": "EC50", "result": "≤ 10", "unit": "µM"}]}
{"molecule": "O=c1c2ccncc2nc(-c2cncc(Cl)c2)n1NCc1ccc(Cl)cc1", "note": "[Example 18, 3-{[(4-Chlorophenyl)methyl]amino}-2-(5-chloropyridin-3-yl)-3H,4H-pyrido[3,4-d]pyrimidin-4-one]", "values": [{"measurement": "EC50", "result": "≤ 10", "unit": "µM"}]}
{"molecule": "Cc1cc(-c2nc3cnccc3c(=O)n2NCc2ccc(Cl)cc2)ccc1[N+](=O)[O-]", "note": "[Example 19, 3-{[(4-Chlorophenyl)methyl]amino}-2-(3-methyl-4-nitrophenyl)-3H,4H-pyrido[3,4-d]pyrimidin-4-one]", "values": [{"measurement": "EC50", "result": "≤ 10", "unit": "µM"}]}
{"molecule": "COc1cncc(-c2nc3ncccc3c(=O)n2NCc2ccc(Cl)cc2)c1", "note": "[Example 9, 3-{[(4-Chlorophenyl)methyl]amino}-2-(5-methoxypyridin-3-yl)-3H,4H-pyrido[2,3-d]pyrimidin-4-one]", "values": [{"measurement": "EC50", "result": "≤ 10", "unit": "µM"}]}
{"molecule": "Cn1cnc2nc(-c3ccc(F)cc3)n(NCc3ccc(Cl)cc3)c(=O)c21", "note": "[Example 39, 1-{[(4-Chlorophenyl)methyl]amino}-2-(4-fluorophenyl)-7-methyl-6,7-dihydro-1H-purin-6-one]", "values": [{"measurement": "EC50", "result": "≤ 10", "unit": "µM"}]}
{"molecule": "Cc1cc(-c2nc3cnccc3c(=O)n2NCc2ccc(Cl)cc2)ccc1O", "note": "[Example 21, 3-{[(4-Chlorophenyl)methyl]amino}-2-(4-hydroxy-3-methylphenyl)-3H,4H-pyrido[3,4-d]pyrimidin-4-one]", "values": [{"measurement": "EC50", "result": "≤ 10", "unit": "µM"}]}
{"molecule": "O=c1c2sccc2nc(-c2ccc(F)cc2)n1NCc1ccc(Cl)cc1", "note": "[Example 37, 3-{[(4-Chlorophenyl)methyl]amino}-2-(4-fluorophenyl)-3H,4H-thieno[3,2-d]pyrimidin-4-one]", "values": [{"measurement": "EC50", "result": "≤ 10", "unit": "µM"}]}
{"molecule": "Cc1cncc(-c2nc3nccnc3c(=O)n2NCc2ccc(C#N)cc2)c1", "note": "[Example 48, 4-({[2-(5-Methylpyridin-3-yl)-4-oxo-3,4-dihydropteridin-3-yl]amino}methyl)benzonitrile]", "values": [{"measurement": "EC50", "result": "≤ 10", "unit": "µM"}]}
